From patent EP0488224A2, “Fermentationproduct of a Verticimonosporium strain and feed additivs containing a linear peptide” (MITSUBISHI KASEI CORPORATION, priority 1990, dated 1992)
Where two headings read alike, the source gives them in different places.

Columns and labels:
[1] = Acute toxicity on oral administration; assay type: in vivo; details: five male mouse
Procedure: The acute toxicity of substance MBA090-18 was determined using five male mouse on oral administration.

[2] = tested on: rumen bacterial solution; experiment: Effect on digestion of cellulose by rumen bacterial solution; parameters: species or system goat; details: 5 µg/ml, 37 °C, 3 days; 0 µg/ml control 72
Procedure: The effect of substance MBA090-18 on the digestion of cellulose in the rumen was evaluated.
A goat (a native species of Japan, 20 Kg) equipped with rumen fistula was again used. A preparation of rumen bacterial solution was prepared by collecting the rumen content through the fistula, followed by a prompt centrifugation at 3000 rpm for 10 min to remove feed debris and protozoa.
To the 10 ml of the bacterial solution was added 50 ml of a basal medium described in the above Experiment 3 except that 0.4 g of cellulose powder and 6 mg of vitamin mixture are supplemented. The flask is then sealed anaerobically under CO₂ gas and incubated at 37 °C for 3 days. When the incubation finished, the cultured broth was assayed about the digestion of cellulose.

[3] = tested on: Caenorhabditis elegans; experiment: Anti-nematode activity (1): growth and motility of nematodes in suspension; assay type: cell-based; parameters: key: 5 scales, - ±, +, ++ and +++; 5 scales, - ±, +, ++ and +++; 5 scales, - ±, +, ++ and +++; 5 scales, - ±, +, ++ and +++; 5 scales, - ±, +, ++ and +++; details: 12.5 ppm, 20 °C, one week
Procedure: Anti-nematode activity of substance MBA090-18 was evaluated using Caenorhabditis elegans, a soil […] nematode.
Caenorhabditis elegans was suspended into sterilized water at the density of 20 - 30 heads/100 µl. To the suspension was added substance MBA090-18 at the concentration of 12.5 ppm. The mixture was incubated at 20 °C for one week while the growth and motility of nematodes being observed. […] The anti-nematode activity was evaluated and expressed according to the following 5 scales, - ±, +, ++ and +++.

[4] = value from a literature; cited from earlier work
[5] = tested on: rumen fermentation; experiment: Effect on feed efficiency in vivo (rumen content of a goat given feed additive); details: 80 mg/day in feed, percentage to control (100)
Procedure: The effect of linear peptide compounds on the feed effeciency was evaluated in vivo using a ruminant animal.
A goat (a native species of Japan, 25 Kg) equipped with rumen fistula was used. As a feed additive, either of linear peptide compounds, MBA090-18 and gramicidin D, was administered to the animal. The rumen content was collected through the fistula and subjected to the assay in the same manner as described in the above Experiment 4 to obtain the total amount of VFAs, the production ratio of propionic acid to acetic acid (PA/AA) and the number of survival protozoas. In the table, values are shown as the percentage to the control values (100) obtained by keeping animal with the same feed ration to which neither of test compounds has been added.

Row | Compound | acute toxicity [1] [mg/kg] | Antinematode Activity growth [3] | Antinematode Activity mobility [3] | other results
1 | CC[C@@H](C(=O)[C@@H](C)[C@@H](O)[C@H](C)[C@@H]1O[C@@H]([C@@H](CC)C(=O)O)CC[C@@H]1C)[C@H]1O[C@]2(C=C[C@@H](O)[C@]3(CC[C@@](C)([C@H]4CC[C@](O)(CC)[C@H](C)O4)O3)O2)[C@H](C)C[C@@H]1C [Salinomysin] | 50 |  |  | 
2 | Monensin | 43.8 |  |  | Digestion Rate of Cellulose (%) [2]: 10%
3 | CN[C@H]1C[C@@H](N)[C@H](O)[C@@H](O[C@@H]2O[C@H](CO)[C@H](O)[C@@H]3OC4(O[C@H]23)O[C@H]([C@@H](N)CO)[C@H](O)[C@H](O)[C@H]4O)[C@@H]1O (some centres unmarked) [Hygromycin B] |  | ++ | ± | 
4 | Avermectin |  | +++ | +++ | acute toxicity [4]: 35 mg/kg
5 | Gramicidin D |  |  |  | total VFAs (%) [5]: 103%; PA/AA (%) ([5]; propionic acid to acetic acid): 125%; Protozoa (%) ([5]; surviving protozoa): 86%
